PubChem BioAssay (NCI)
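In this assay, cells in 96-well plates receive the compound at five concentrations for 48 hours. Endpoints are linearly interpolated between the surrounding concentrations. GI50: concentration for 50% inhibition of growth. TGI denotes the concentration required for complete inhibition of growth.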

Legend:
Assay in all cases: NCI tumour cell line growth inhibition, 48 h
[1] = test system: A498 renal
[2] = test system: NCI-H460 lung
[3] = test system: OVCAR-5 ovarian
[4] = test system: OVCAR-8 ovarian
[5] = test system: RPMI-8226 leukemia
[6] = test system: SK-MEL-2 melanoma
[7] = test system: SK-OV-3 ovarian
[8] = test system: SNB-19 CNS
[9] = test system: SF-268 CNS
[10] = test system: DU-145 prostate

| Structure (SMILES) | TGI [1] | TGI [2] | TGI [3] | TGI [4] | TGI [5] | TGI [6] | TGI [7] | TGI [8] | TGI [9] | GI50 [10] | TGI [10] | GI50 [2] | GI50 [3] | GI50 [4] | GI50 [5] | GI50 [9] | GI50 [6] | GI50 [7] | GI50 [8] | GI50 [1] |
| --- | --- | --- | --- | --- | --- | --- | --- | --- | --- | --- | --- | --- | --- | --- | --- | --- | --- | --- | --- | --- |
| COC(=O)/C(=C/c1ccc(OC)cc1)C(C(=O)O)=C1CCCC1 | > 100 µM | > 100 µM | > 100 µM | > 100 µM | > 100 µM | > 100 µM | > 100 µM | > 100 µM |  |  |  |  |  |  |  |  |  |  |  |  |
| COC(=O)C1CCCC2(C1)OCCO2 (centres undefined) | > 100 µM | > 100 µM | > 100 µM | > 100 µM | > 100 µM | > 100 µM | > 100 µM | > 100 µM | > 100 µM |  |  |  |  |  |  |  |  |  |  |  |
| CCOC(=O)c1ccc(/C(C)=N/NC(N)=S)cc1 | > 100 µM | > 100 µM |  | > 100 µM | > 100 µM |  | > 100 µM | > 100 µM |  |  |  |  |  |  |  |  |  |  |  |  |
| COC(=O)/C(=N\NC(N)=S)C(C(=O)OC)C(=O)C(=O)Nc1ccc(C)cc1 (centres undefined) | > 100 µM | > 100 µM | > 100 µM | > 100 µM | > 100 µM | > 100 µM | > 100 µM | > 100 µM | > 100 µM |  |  |  |  |  |  |  |  |  |  |  |
| Cc1ccc2nc(/C(=C/c3ccc(/C=C(\NC(=O)c4ccccc4)c4nc5ccc(C)cc5[nH]4)c(C)c3)NC(=O)c3ccccc3)[nH]c2c1 | 53.6 µM | 35.8 µM | 33.8 µM | 81.8 µM | 80.9 µM | 33.3 µM | > 100 µM | > 100 µM | > 100 µM |  |  |  |  |  |  |  |  |  |  |  |
| CC(C)C1=Cc2ccc3c(c2C(=O)C1=O)CCCC3(C)C | 34 µM | 37 µM | 33.8 µM | 10 µM | 5.17 µM | 34.6 µM | 32 µM | 31.3 µM | 20.2 µM |  |  |  |  |  |  |  |  |  |  |  |
| CN(C)C(=S)/N=c1\sn(C)/c(=N\C(=S)N(C)C)n1C | > 100 µM | > 100 µM | > 100 µM | > 100 µM | > 100 µM |  | > 100 µM | > 100 µM | > 100 µM |  |  |  |  |  |  |  |  |  |  |  |
| COC(=O)c1ccc2c(c1)C(=O)c1c-2n(CCCN=[N+]=[N-])c(=O)c2cc(OC)c(OC)cc12 |  | > 100 µM | > 100 µM | > 100 µM | > 100 µM | > 100 µM | > 100 µM | > 100 µM | > 100 µM | > 100 µM | > 100 µM | > 100 µM | > 100 µM | > 100 µM | > 100 µM | > 100 µM | > 100 µM | 20.8 µM | > 100 µM |  |
| O=C(CC1C(=O)Nc2ccccc2S1=O)Nc1cc(Cl)ccc1Cl (centres undefined) | > 100 µM | > 100 µM | > 100 µM | > 100 µM | > 100 µM | > 100 µM |  | > 100 µM | > 100 µM |  |  |  |  |  |  |  |  |  |  |  |
| C#CC1/C(=C\C(=O)OC)CCCC1O (centres undefined) | > 100 µM | > 100 µM | > 100 µM | > 100 µM | > 100 µM | > 100 µM | > 100 µM | > 100 µM | > 100 µM |  |  |  |  |  |  |  |  |  |  |  |
| CN1C(=O)c2ccccc2NC(=O)C12O[C@@H]2c1ccccc1 (some centres undefined) | > 100 µM | > 100 µM | > 100 µM | > 100 µM | > 100 µM | > 100 µM |  |  | > 100 µM |  | > 100 µM |  |  |  |  |  |  |  |  |  |
| C=CCC1(c2ccc(OC)cc2)C=CC(=O)CC1 (centres undefined) |  | > 100 µM | > 100 µM | > 100 µM |  |  | > 100 µM | > 100 µM | > 100 µM |  | > 100 µM |  |  |  |  |  |  |  |  |  |
| COc1ccc(-c2nnc3n(C)c(=O)c4ccccc4n23)cc1N | 54.5 µM | > 100 µM | > 100 µM | > 100 µM | > 100 µM |  | > 100 µM | > 100 µM | > 100 µM | 3.09 µM | > 100 µM | 0.0508 µM | 9.26 µM | 4.94 µM | 3.88 µM | 7.17 µM |  | 3.25 µM | 3.65 µM | 2.84 µM |
| O=C(/C(=C/c1ccc(Cl)cc1)c1ccccc1)c1ccccc1 | 44.9 µM | 34.8 µM | 42.3 µM | 50.7 µM | 45.4 µM | 36.6 µM | 71.7 µM |  | 41.8 µM |  |  |  |  |  |  |  |  |  |  |  |
| COc1c(O)c2c(=O)cc3c4c5c(cc(=O)c6c(O)c(OC)c(CC(C)O)c(c(c1CC(C)O)c24)c65)OCO3 (centres undefined) |  | 2.32 µM | 9.13 µM | 5.15 µM | 12 µM | 3.57 µM | 20.4 µM | 7.53 µM | 5.97 µM |  |  |  |  |  |  |  |  |  |  |  |
| Cc1ccc(C)c(NC(=O)c2cccc([N+](=O)[O-])c2O)c1 | 80.9 µM | 68.4 µM | > 100 µM | > 100 µM | > 100 µM |  | > 100 µM | > 100 µM | > 100 µM |  |  |  |  |  |  |  |  |  |  |  |
| O=[N+]([O-])c1ccc2occ3c2c1CCC3 | > 100 µM | > 100 µM | > 100 µM | > 100 µM | > 100 µM | > 100 µM | > 100 µM | > 100 µM | > 100 µM |  |  |  |  |  |  |  |  |  |  |  |
| N#CC(C(=O)/C(=N\NC(N)=O)C(C#N)c1ccc(Cl)cc1)c1ccc(Cl)cc1 (centres undefined) | > 100 µM | > 100 µM | > 100 µM | > 100 µM | > 100 µM | > 100 µM | > 100 µM | > 100 µM | > 100 µM |  |  |  |  |  |  |  |  |  |  |  |
| O=C(Nc1cccc(Cl)c1)C(=O)C(C(=O)c1ccc2ccccc2c1)C1OC(=O)c2ccccc21 (centres undefined) |  | 30.5 µM | 59.6 µM | 68.9 µM | 44 µM | 32.5 µM | > 100 µM | 28 µM | 57.5 µM |  |  |  |  |  |  |  |  |  |  |  |
| NC1CCN(Cc2ccccc2)CC1 |  | > 100 µM | > 100 µM | > 100 µM | > 100 µM | > 100 µM | > 100 µM | > 100 µM | > 100 µM |  |  | > 100 µM | > 100 µM | > 100 µM | > 100 µM | > 100 µM | > 100 µM | > 100 µM | > 100 µM |  |
| COc1cnc2c(c1)C(=O)c1c-2n(CCCNC2=NCCS2)c(=O)c2cc([N+](=O)[O-])ccc12 |  | 1.24 µM | 3.59 µM |  |  |  |  |  | 1.88 µM | < 0.01 µM | 1.38 µM | < 0.01 µM | 1.04 µM |  |  | < 0.01 µM |  |  |  |  |
| Cc1ccccc1C(=O)c1cc(O)ccc1O | > 100 µM | > 100 µM | > 100 µM | > 100 µM | > 100 µM | > 100 µM | > 100 µM | > 100 µM | > 100 µM |  |  |  |  |  |  |  |  |  |  |  |
